Test results as given in US20260083687A1, “COMPOUNDS FOR REDUCING LACTATION AND IMPROVING HEALTH” (AHV International B.V., priority 2022, published 2026).
Where two headings read alike, the source gives them in different places.

What was measured:
[1] = test system: cows (Holstein Friesians); details: for Milk yield Last milking: before administration; for % reduction after 24 h / % reduction after 48 h / % reduction after 72 h / % reduction after 96 h: vs milk yield before treatment
Protocol: Twelve cows (Holstein Friesians) from 1 farm were used. The start of the dry period of every cow was between 40 to 60 days before calving. The cows were milked twice a day at fixed times and the cows were selected on a milk production of >12.5 litres/day 24 hours before PTSO administering took place. No extra measures were taken to stimulate dry-off, such as changes in feed ration or changes in milking frequency. The cows were milked twice a day. The cows were housed in free stables. A porcine gelatine capsule with PTSO or placebo gel capsule with water were administered 7 to 14 days before the start of the dry-off period.
For this study various dosages synthetic PTSO (>98% purity) were administered to cows with a milk yield of at least 12.5 kg milk per day. The following dosages were applied: 0, 10, 20, 40 ml of pure PTSO. For each dosage 3 cows were used.
Before the various dosages were administered the milk yield was monitored for 14 days. The gel capsules were orally administered by a bolus shooter, the gel capsule for the placebo group contained tap water. Administering of a capsule took place between the morning and afternoon milking. On t=14 days the PTSO-containing capsules and the placebo capsules were administered and the milk yield was monitored 48 hours more.

[2] = test system: cows (Holstein Friesians); assay: Treatment with DPD analogs (organosulfur compounds) and milk yield (Example 8); type: in vivo, cow
Protocol: Study design. 36 cows (Holstein Friesians) from 2 farms were used. The feed of the cows was composed of TMR, including corn and grass silage, supplemented with soya and minerals. […] The cows were milked in a milk robot. […] The cows were milked twice a day. The cows were housed in free stables. […] Placebo treatment corresponded to administration of two gel capsules containing 180 ml water.
For this study dosages synthetic compounds (>96% purity) as indicated in table 17 were administered to cows. The objective of this study was to compare the activity of a corresponding dose of the compounds expressed in mol, based on the number of moles that is present in 80 ml di-n-propyl disulfide at 20° C. The number of moles was converted to ml or grams of the tested compounds. For this purpose, the molecular weight and specific density were used in the calculations. The compounds were formulated in the gel capsules as indicated in the previous examples.
Before the various dosages were administered, the milk yields were monitored for at least 5 days.

dairy cows = details: single injection 5.6 mg at dry-off, cited from earlier work
goats = details: single injection 5.6 mg at dry-off; cited from earlier work
cows = details: cited from earlier work
[3] = individual cows, dose per compound as listed in E284
[4] = vs milk yield before treatment, individual cows, dose per compound as listed in E284

With `CCCSS(=O)(=O)CCC` [PTSO, di-n-propyl thiosulfonate] the “Average reduction 24 and 48 h (%)” value ([1]; 10 ml PTSO) was −5%, the “Milk yield After 24 h” value ([1]; 10 ml PTSO) was 19.89 kg and the “Milk yield After 48 h” value ([1]; 10 ml PTSO) was 19.51 kg. For the same compound, the “Milk yield After 72 h” value ([1]; 10 ml PTSO) was 18.94 kg, the “Milk yield After 96 h” value ([1]; 10 ml PTSO) was 18.67 kg and the “Milk yield Last milking” value ([1]; 10 ml PTSO) was 18.76 kg. The “% reduction after 24 h” value ([1]; 10 ml PTSO) was −6%, the “% reduction after 48 h” value ([1]; 10 ml PTSO) was −4% and the “% reduction after 72 h” value ([1]; 10 ml PTSO) was −0.03%. The “% reduction after 96 h” value ([1]; 10 ml PTSO) was 0.01%, the “Average reduction 24 and 48 h (%)” value ([1]; 20 ml PTSO) was 66% and the “Milk yield After 24 h” value ([1]; 20 ml PTSO) was 7.7 kg. The “Milk yield After 48 h” value ([1]; 20 ml PTSO) was 4.56 kg, the “Milk yield After 72 h” value ([1]; 20 ml PTSO) was 9.31 kg and the “Milk yield After 96 h” value ([1]; 20 ml PTSO) was 14.99 kg. For the same compound, the “effect on milk yield compared to the milk yield before treatment” value ([1]; 20 ml PTSO) was “clear lowering on milk yield”, the “Milk yield Last milking” value ([1]; 20 ml PTSO) was 15.72 kg and the “% reduction after 24 h” value ([1]; 20 ml PTSO) was 61%. The “% reduction after 48 h” value ([1]; 20 ml PTSO) was 71%, the “% reduction after 72 h” value ([1]; 20 ml PTSO) was 41% and the “% reduction after 96 h” value ([1]; 20 ml PTSO) was 4.7%. The “Average reduction 24 and 48 h (%)” value ([1]; 40 ml PTSO) was 55%, the “Milk yield After 24 h” value ([1]; 40 ml PTSO) was 8.89 kg and the “Milk yield After 48 h” value ([1]; 40 ml PTSO) was 7.04 kg. For the same compound, the “Milk yield After 72 h” value ([1]; 40 ml PTSO) was 9.06 kg, the “Milk yield After 96 h” value ([1]; 40 ml PTSO) was 15.87 kg and the “Milk yield Last milking” value ([1]; 40 ml PTSO) was 16.77 kg. For the same compound, the “% reduction after 24 h” value ([1]; 40 ml PTSO) was 52%, the “% reduction after 48 h” value ([1]; 40 ml PTSO) was 58% and the “% reduction after 72 h” value ([1]; 40 ml PTSO) was 46%. For the same compound, the “% reduction after 96 h” value ([1]; 40 ml PTSO) was 5.4%, the “time to complete recovery of milk yield” value ([1]; after PTSO administration) was 3 to 4 days and the “damage to the udder” value ([1]; bovine, in vivo) was “does not cause any damage to the udder”. For the same compound, the “dosage at which the effect on milk yield became visible” value ([1]; single oral dose) was no less than 20 mL, the “dosage giving maximum response (milk yield decrease)” value ([1]; single oral dose) was no less than 20 mL and the “% reduction after 24 h average (milk yield)” value ([2]; 24 h after one oral gel capsule, dose equimolar to 80 ml di-n-propyl disulfide, negative value = increase in yield) was 61%. For the same compound, the “% reduction after 48 h average (milk yield)” value ([2]; 48 h after one oral gel capsule, dose equimolar to 80 ml di-n-propyl disulfide, negative value = increase in yield) was 71%, the “% reduction after 72 h average (milk yield)” value ([2]; 72 h after one oral gel capsule, dose equimolar to 80 ml di-n-propyl disulfide, negative value = increase in yield) was 41% and the “% reduction after 96 h average (milk yield)” value ([2]; 96 h after one oral gel capsule, dose equimolar to 80 ml di-n-propyl disulfide, negative value = increase in yield) was 4.7%. The “average reduction after 24, 48 and 72 h (%) (milk yield)” value ([2]; average of 24, 48 and 72 h after one oral gel capsule, dose equimolar to 80 ml di-n-propyl disulfide) was 58%, the “Average reduction after 24 and 48 h (%) (milk yield)” value ([2]; average of 24 and 48 h after one oral gel capsule, dose equimolar to 80 ml di-n-propyl disulfide) was 66% and the “Milk yield (kg) Last milking” value ([2]; before administration, individual cows, single oral gel capsule dose per cow (ml unless g): diethyl disulfide 63, di-n-propyl disulfide 80, diisopropyl disulfide 160, di-n-butyl disulfide 100, dibenzyl disulfide 102, diethyl sulfide 55, di-n-propyl sulfide 72, diisopropyl sulfide 74, di-n-butyl sulfide 90, dibenzyl sulfide 96 g, diphenyl sulfide 85, di-n-propyl trisulfide 98, di-n-propyl sulfone 6) was 15.7 kg. For the same compound, the “Average reduction after 24 and 48 h (%)” value [2, 3] was 66%, the “Milk yield (kg) After 24 h” value [2, 3] was 7.7 kg and the “Milk yield (kg) After 48 h” value [2, 3] was 4.6 kg. For the same compound, the “Milk yield (kg) After 72 h” value [2, 3] was 9.3 kg, the “Milk yield (kg) After 96 h” value [2, 3] was 14.5 kg and the “average reduction after 24, 48 and 72 h (%)” value [2, 3] was 58%. For the same compound, the “% reduction after 24 h” value [2, 4] was 61%, the “% reduction after 48 h” value [2, 4] was 71% and the “% reduction after 72 h” value [2, 4] was 41%. The “% reduction after 96 h” value [2, 4] was 4.7%.
In the case of `C=CCN1C[C@H](C(=O)N(CCCN(C)C)C(=O)NCC)C[C@@H]2c3cccc4[nH]cc(c34)C[C@H]21` [cabergoline], the “duration of reduced prolactin after dry-off” value (dairy cows) is listed as “up to 8 days”, the milk reduction (dairy cows; dairy cows) is listed as 22% and the milk reduction (goats) is listed as 28%.
In the case of `CCCN1CC(NS(=O)(=O)N(CC)CC)CC2Cc3c(O)cccc3CC21` (stereo not shown) [quinagolide], the “lower milk production compared with the placebo group” value (cows; 1 mg daily i.m. during 9 weeks, early lactation, last 4 weeks of treatment) is listed as 5.3 kg/day, the Milk production (cows; 4 mg i.m. twice a day from 5 days before until 13 days after dry-off, placebo 25 kg/day) is listed as 18 kg/day and the “decreased milk production compared with the placebo group” value (cows; Ollier, Zhao and Lacasse (2014)) is listed as 7 L.
